Usually IC50 stands for the point on the concentration scale where inhibition reaches its midpoint. Usually EC50 stands for the midpoint of the concentration-response curve.

The target of test [1] is T1, TGF-beta receptor type-1 (Homo sapiens, UniProt P36897).
T1 sequence (P36897 whole entry): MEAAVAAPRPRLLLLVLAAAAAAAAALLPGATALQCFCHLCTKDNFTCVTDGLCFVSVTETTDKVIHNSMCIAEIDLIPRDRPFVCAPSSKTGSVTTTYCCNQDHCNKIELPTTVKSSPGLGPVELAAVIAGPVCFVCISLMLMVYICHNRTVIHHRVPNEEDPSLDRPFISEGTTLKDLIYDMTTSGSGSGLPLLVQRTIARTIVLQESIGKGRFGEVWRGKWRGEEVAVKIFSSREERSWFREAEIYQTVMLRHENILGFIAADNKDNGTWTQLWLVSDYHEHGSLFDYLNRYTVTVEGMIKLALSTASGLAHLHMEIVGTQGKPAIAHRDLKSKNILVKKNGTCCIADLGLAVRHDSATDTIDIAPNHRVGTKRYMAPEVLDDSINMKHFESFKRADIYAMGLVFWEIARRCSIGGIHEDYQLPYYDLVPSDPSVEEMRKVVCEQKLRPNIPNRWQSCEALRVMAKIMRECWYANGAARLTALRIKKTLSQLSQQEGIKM
The test is described as follows: Inhibition of TGFbeta receptor.

For test [2], the target named is T1, TGF-beta receptor type-1. The test is described as follows: Inhibition of TGFbeta receptor in human HaCaT cells assessed as Smad phosphorylation by ELISA. It counts as cell-based. (In an ELISA, binding on a coated surface is turned into a signal by an enzyme label.)
The target in test [3] is Platelet-derived growth factor receptor alpha (Homo sapiens, UniProt P16234). Nature of the test: Inhibition of PDGFRalpha.
Chain of Platelet-derived growth factor receptor alpha (P16234 whole entry): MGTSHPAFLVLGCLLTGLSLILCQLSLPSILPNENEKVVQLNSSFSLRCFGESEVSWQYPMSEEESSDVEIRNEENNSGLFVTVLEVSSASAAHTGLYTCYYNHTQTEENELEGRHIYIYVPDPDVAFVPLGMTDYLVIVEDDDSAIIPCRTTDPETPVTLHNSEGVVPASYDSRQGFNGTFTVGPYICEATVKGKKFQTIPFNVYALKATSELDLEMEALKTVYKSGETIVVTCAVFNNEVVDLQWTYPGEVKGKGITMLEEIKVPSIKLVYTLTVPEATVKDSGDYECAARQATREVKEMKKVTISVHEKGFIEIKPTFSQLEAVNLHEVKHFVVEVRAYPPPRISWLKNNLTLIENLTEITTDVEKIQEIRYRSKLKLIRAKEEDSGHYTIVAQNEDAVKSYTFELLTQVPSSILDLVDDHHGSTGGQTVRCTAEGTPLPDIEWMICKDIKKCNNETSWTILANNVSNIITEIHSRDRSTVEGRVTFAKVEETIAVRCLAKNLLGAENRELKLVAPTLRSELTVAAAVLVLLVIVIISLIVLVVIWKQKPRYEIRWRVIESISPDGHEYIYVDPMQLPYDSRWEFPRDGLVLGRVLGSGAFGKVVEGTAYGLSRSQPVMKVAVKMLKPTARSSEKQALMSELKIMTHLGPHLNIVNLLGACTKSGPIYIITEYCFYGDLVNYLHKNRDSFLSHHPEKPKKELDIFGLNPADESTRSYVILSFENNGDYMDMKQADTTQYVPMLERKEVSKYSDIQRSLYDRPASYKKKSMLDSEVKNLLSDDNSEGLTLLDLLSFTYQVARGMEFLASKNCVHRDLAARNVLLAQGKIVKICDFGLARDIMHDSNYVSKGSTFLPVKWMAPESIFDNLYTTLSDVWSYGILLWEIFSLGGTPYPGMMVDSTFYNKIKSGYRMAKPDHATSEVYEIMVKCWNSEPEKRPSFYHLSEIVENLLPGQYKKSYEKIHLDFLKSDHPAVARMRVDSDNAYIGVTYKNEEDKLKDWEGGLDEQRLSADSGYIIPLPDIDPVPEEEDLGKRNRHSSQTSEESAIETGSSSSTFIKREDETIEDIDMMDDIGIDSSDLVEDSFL
The test system of a further test is HaCaT. Nature of the test: Cytotoxicity against human HaCaT cells.

Bounds are passed on as bounds.

On TGF-beta receptor type-1 [1], `CCNC(=O)c1ccc2c(c1)NC(=O)/C2=C(\Nc1ccc(N(C)C(=O)CN2CCN(C)CC2)cc1)c1ccccc1` displayed a half-inhibitory concentration (IC50) of 9 nM. Also, the EC50 on TGF-beta receptor type-1 [2] was 1370 nM. The like results for `CC(C)NC(=O)c1ccc2c(c1)NC(=O)/C2=C(\Nc1ccc(CN2CCCCC2)cc1)c1ccccc1` were, in that order, 318 nM and 708 nM. Consider `CNC(=O)c1ccc2c(c1)NC(=O)/C2=C(\Nc1ccc(CN2CCCCC2)cc1)c1ccccc1`, for which the half-maximal inhibitory concentration (IC50) against TGF-beta receptor type-1 [1] stood at 32 nM. This lies in the double-digit nanomolar range. The same measure, in the same setting: with `CCN(CC)C(=O)c1ccc2c(c1)NC(=O)/C2=C(\Nc1ccc(CN2CCCCC2)cc1)c1ccccc1` the figure was 625 nM. Consider `CCN(C)C(=O)c1ccc2c(c1)NC(=O)/C2=C(\Nc1ccc(N(C)C(=O)CN2CCN(C)CC2)cc1)c1ccccc1`, for which 7 nM corresponded to half-maximal inhibition against TGF-beta receptor type-1 [1] (IC50). At TGF-beta receptor type-1 [2], the concentration for a half-maximal effect (EC50) is 833 nM. On TGF-beta receptor type-1 [1], `CCN(C)C(=O)c1ccc2c(c1)NC(=O)/C2=C(\Nc1ccc(N(C)S(C)(=O)=O)cc1)c1ccccc1` gave an IC50 of 231 nM. In addition, the EC50 on TGF-beta receptor type-1 [2] is > 10000 nM. With `CCN(C)C(=O)c1ccc2c(c1)NC(=O)/C2=C(\NC1CCN(C)CC1)c1ccccc1`, the figures for the IC50 (in test [3]; against TGF-beta receptor type-1 [1]) were > 5000 nM and > 50000 nM, respectively. For the same compound, the EC50 at TGF-beta receptor type-1 [2] is > 10000 nM. At TGF-beta receptor type-1 [1], `O=C1Nc2cc(C(=O)N3CCCC3)ccc2/C1=C(/Nc1ccc(CN2CCCCC2)cc1)c1ccccc1` had an IC50 of 245 nM. At TGF-beta receptor type-1 [2], the concentration giving a half-maximal response (EC50) worked out at 696 nM.

On to `CCNC(=O)c1ccc2c(c1)NC(=O)/C2=C\Nc1ccc(N(C)C(=O)CN2CCN(C)CC2)cc1`, for which the IC50 in test [3] is > 5000 nM; against TGF-beta receptor type-1 [1], 15 nM. The EC50 at TGF-beta receptor type-1 [2] stood at 2180 nM.

Turning to `CCNC(=O)c1ccc2c(c1)NC(=O)/C2=C(\Nc1ccc(CCN(C)C)cc1)c1ccccc1`, the half-inhibitory concentration (IC50) on TGF-beta receptor type-1 [1] is 47 nM. In addition, the EC50 at TGF-beta receptor type-1 [2] came to 135 nM.

`CCN(C)C(=O)c1ccc2c(c1)NC(=O)/C2=C(\Nc1ccc(N(CCN(C)C)C(C)=O)cc1)c1ccccc1` came in with a half-inhibitory concentration (IC50) on TGF-beta receptor type-1 [1] of 8 nM. For the same compound, the EC50 at TGF-beta receptor type-1 [2] was 102 nM. The corresponding values for `NC(=O)c1ccc2c(c1)NC(=O)/C2=C(\Nc1ccc(CN2CCCCC2)cc1)c1ccccc1` are 369 nM and > 50000 nM. As to `O=C1Nc2cc(C(=O)NCc3ccccc3)ccc2/C1=C(/Nc1ccc(CN2CCCCC2)cc1)c1ccccc1`, on TGF-beta receptor type-1 [1], the IC50 was determined as 1530 nM. `CN(C)C(=O)c1ccc2c(c1)NC(=O)/C2=C(\Nc1ccc(CN2CCCCC2)cc1)c1ccccc1` yielded a half-inhibitory concentration (IC50) against TGF-beta receptor type-1 [1] of 35 nM. Further, the EC50 on TGF-beta receptor type-1 [2] worked out at 246 nM. For `CCN(C)C(=O)c1ccc2c(c1)NC(=O)/C2=C(\NC1CCCCC1)c1ccccc1`, the IC50 in test [3] was > 5000 nM; at TGF-beta receptor type-1 [1] it was > 50000 nM. For the same compound, the EC50 on TGF-beta receptor type-1 [2] was > 10000 nM. For `CCNC(=O)c1ccc2c(c1)NC(=O)/C2=C(\Nc1ccc(N(CCCN(C)C)C(C)=O)cc1)c1ccccc1`, at TGF-beta receptor type-1 [1], the IC50 amounted to 3 nM. In addition, the EC50 on TGF-beta receptor type-1 [2] is 1250 nM. For the compound `CCN(CC)Cc1cccc(N/C(=C2\C(=O)Nc3cc(C(=O)N(C)CC)ccc32)c2ccccc2)c1`, the IC50 on TGF-beta receptor type-1 [1] came out at 616 nM.

Turning to `CCNC(=O)c1ccc2c(c1)NC(=O)/C2=C\Nc1ccc(N(C)C(=O)CN(C)C)cc1`, the midpoint of inhibition on TGF-beta receptor type-1 [1], the IC50, lay at 52 nM. The concentration for a half-maximal effect (EC50) on TGF-beta receptor type-1 [2] was determined as 4360 nM. The corresponding values for `CCN(C)C(=O)c1ccc2c(c1)NC(=O)/C2=C(\Nc1ccc(N(CCN(C)C)S(C)(=O)=O)cc1)c1ccccc1` are 7 nM and 209 nM. `CCN(C)C(=O)c1ccc2c(c1)NC(=O)/C2=C(\Nc1ccc(C(=O)OC)cc1)c1ccccc1` showed a 50% inhibitory concentration (IC50) on TGF-beta receptor type-1 [1] of 1970 nM. This counts as single-digit micromolar. For the compound `CCN(C)C(=O)c1ccc2c(c1)NC(=O)/C2=C(\Nc1ccccc1)c1ccccc1`, the results for the IC50 (in test [3]; on TGF-beta receptor type-1 [1]) were > 5000 nM and 2590 nM, respectively. `CCNC(=O)c1ccc2c(c1)NC(=O)/C2=C\Nc1ccc(N(CCCN(C)C)C(C)=O)cc1` displayed an IC50 against TGF-beta receptor type-1 [1] of 17 nM. For the same compound, on TGF-beta receptor type-1 [2], the EC50 was found to be 597 nM.

For `CCN(C)C(=O)c1ccc2c(c1)NC(=O)/C2=C(\Nc1ccc(N(CCCN(C)C)C(C)=O)cc1)c1ccccc1`, the midpoint of inhibition at TGF-beta receptor type-1 [1], the IC50, lay at 9 nM. Further, on TGF-beta receptor type-1 [2], the EC50 worked out at 411 nM. The compound `CCNC(=O)c1ccc2c(c1)NC(=O)/C2=C(\Nc1ccc(C(=O)NCCN(CC)CC)cc1)c1ccccc1` showed a half-inhibitory concentration (IC50) at TGF-beta receptor type-1 [1] of 33 nM. The EC50 at TGF-beta receptor type-1 [2] was determined as 505 nM.

With `CCN(C)C(=O)c1ccc2c(c1)NC(=O)/C2=C(\Nc1ccc(C(=O)O)cc1)c1ccccc1`, the IC50 at TGF-beta receptor type-1 [1] stood at 782 nM. In the case of `CCNC(=O)c1ccc2c(c1)NC(=O)/C2=C\Nc1ccc(CN2CCCCC2)cc1`, inhibition against TGF-beta receptor type-1 [1] was half-maximal at 69 nM (IC50). Moreover, the EC50 on TGF-beta receptor type-1 [2] came to 376 nM. The corresponding values for `CCCCNC(=O)c1ccc2c(c1)NC(=O)/C2=C(\Nc1ccc(CN2CCCCC2)cc1)c1ccccc1` are 91 nM and 1060 nM. At TGF-beta receptor type-1 [1], `CCN(CC)CCNC(=O)c1ccc(N/C(=C2\C(=O)Nc3cc(C(=O)N(C)CC)ccc32)c2ccccc2)cc1` registered an IC50 of 64 nM. Further, the EC50 at TGF-beta receptor type-1 [2] worked out at 542 nM. In turn, `CCNC(=O)c1ccc2c(c1)NC(=O)/C2=C(\Nc1ccc(CN2CCCCC2)cc1)c1ccccc1` displayed an IC50 against TGF-beta receptor type-1 [1] of 24 nM. Moreover, the EC50 on TGF-beta receptor type-1 [2] is 75 nM. The compound `CCNC(=O)c1ccc2c(c1)NC(=O)/C2=C(\Nc1ccc(N(C)C(=O)CN(C)C)cc1)c1ccccc1` returned an IC50 against TGF-beta receptor type-1 [1] of 35 nM. The EC50 at TGF-beta receptor type-1 [2] is 3380 nM. For the compound `CCN(C)C(=O)c1ccc2c(c1)NC(=O)/C2=C(\Nc1ccc(CCN(C)C)cc1)c1ccccc1`, the IC50 with HaCaT was > 1000 nM; against TGF-beta receptor type-1 [1], 64 nM. Also, the EC50 at TGF-beta receptor type-1 [2] came to 259 nM. Compound `CCN(C)C(=O)c1ccc2c(c1)NC(=O)/C2=C(\Nc1ccc(N(CC(=O)N(C)C)S(C)(=O)=O)cc1)c1ccccc1` yielded an IC50 against TGF-beta receptor type-1 [1] of 86 nM. Moreover, the EC50 at TGF-beta receptor type-1 [2] is > 3000 nM. Regarding `O=C1Nc2cc(C(=O)NCCO)ccc2/C1=C(/Nc1ccc(CN2CCCCC2)cc1)c1ccccc1`, the IC50 against TGF-beta receptor type-1 [1] is 430 nM. Moreover, the EC50 at TGF-beta receptor type-1 [2] is > 50000 nM. The like results for `CCNC(=O)c1ccc2c(c1)NC(=O)/C2=C(\Nc1ccc(N(CCN(C)C)C(C)=O)cc1)c1ccccc1` were, in that order, 3 nM and 1070 nM.

In the case of `CCN(C)C(=O)c1ccc2c(c1)NC(=O)/C2=C(\Nc1ccc(N(C)C(=O)CN(C)C)cc1)c1ccccc1`, the IC50 against TGF-beta receptor type-1 [1] turned out to be 29 nM. On TGF-beta receptor type-1 [2], the EC50 was determined as 382 nM.

Values taken from ChEMBL document CHEMBL1268952, “Design, synthesis, and evaluation of indolinones as inhibitors of the transforming growth factor β receptor I (TGFβRI)” (J Med Chem, 2010).
